Our source for the IC50 values is patent US8729082B2, “Substituted imidazoquinoxalines” (Bayer Intellectual Property GmbH, priority 2009, dated 2014).

SMILES strings stand for the structures.

For this assay, the target named is T1, human kinase Mps-1 (Homo sapiens, UniProt P33981).
T1 construct: N-terminally GST-tagged human full length recombinant Mps-1 kinase; purchased Invitrogen, Karslruhe, Germany PV4071
T1 sequence (P33981 1-857): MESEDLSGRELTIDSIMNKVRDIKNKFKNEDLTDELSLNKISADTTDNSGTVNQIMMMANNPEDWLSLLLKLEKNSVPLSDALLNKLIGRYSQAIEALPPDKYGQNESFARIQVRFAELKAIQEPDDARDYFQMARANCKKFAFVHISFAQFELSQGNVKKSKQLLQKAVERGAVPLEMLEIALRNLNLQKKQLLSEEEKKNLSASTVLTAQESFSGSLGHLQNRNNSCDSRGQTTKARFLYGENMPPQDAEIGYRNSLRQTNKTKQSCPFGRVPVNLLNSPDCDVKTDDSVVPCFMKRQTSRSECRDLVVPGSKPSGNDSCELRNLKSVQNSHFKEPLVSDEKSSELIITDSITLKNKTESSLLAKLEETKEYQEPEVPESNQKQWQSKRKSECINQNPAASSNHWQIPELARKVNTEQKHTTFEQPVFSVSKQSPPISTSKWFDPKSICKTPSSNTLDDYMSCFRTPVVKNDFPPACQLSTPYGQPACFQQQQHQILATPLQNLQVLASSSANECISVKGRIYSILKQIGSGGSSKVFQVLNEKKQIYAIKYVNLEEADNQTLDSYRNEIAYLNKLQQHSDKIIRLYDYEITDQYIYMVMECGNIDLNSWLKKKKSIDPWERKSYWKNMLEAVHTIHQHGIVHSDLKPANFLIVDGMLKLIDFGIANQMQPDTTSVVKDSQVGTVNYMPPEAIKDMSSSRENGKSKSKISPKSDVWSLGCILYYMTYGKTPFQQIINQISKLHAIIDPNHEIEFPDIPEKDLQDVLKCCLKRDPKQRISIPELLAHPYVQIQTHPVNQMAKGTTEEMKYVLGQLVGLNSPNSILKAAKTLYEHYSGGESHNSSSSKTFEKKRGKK
Nature of the assay: Mps-1 kinase assay (HTRF). In kind it is biochemical. The conditions noted are these: lowATP; mean; read-out: Mps1 lowATP mean IC50. A digest of the protocol: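 HTRF readout: EDTA-stopped reactions incubated 1 h with europium anti-phospho(Ser/Thr) antibody and streptavidin-XLent, emission ratio 665/620 nm after 350 nm excitation. Kinase step: compound pre-bound 15 min to ~1 nM GST-Mps-1, then 60 min at 22 °C with ATP and biotin-peptide substrate; inhibition scaled between no-inhibitor (0%) and no-enzyme (100%) controls.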
In the case of `O=C(NC1CC1)c1ccc(-c2cnc3c(NCCOc4ccccc4)nc4ccccc4n23)cc1` [Example 2-29, N-cyclopropyl-4-{4-[(2-phenoxyethyl)amino]imidazo[1,2-a]quinoxalin-1-yl}benzamide], the IC50 was 443 nM.
Next, `O=C(NC1CC1)c1ccc(-c2cnc3c(NCCc4ccncc4)nc4ccccc4n23)cc1` [Example 2-30, N-cyclopropyl-4-(4-{[2-(pyridin-4-yl)ethyl]amino}imidazo[1,2-a]quinoxalin-1-yl)benzamide]: 121 nM; `O=C(NC1CC1)c1ccc(-c2cnc3c(NCCCCN4CCCC4)nc4ccccc4n23)cc1` [Example 2-31, N-cyclopropyl-4-(4-{[4-(pyrrolidin-1-yl)butyl]amino}imidazo[1,2-a]quinoxalin-1-yl)benzamide]: 321 nM.
For the compound `CS(=O)(=O)Nc1ccc(Nc2nc3ccccc3n3c(-c4ccc(C(=O)NC5CC5)cc4)cnc23)cc1` [Example 2-32, N-cyclopropyl-4-[4-({4-[(methylsulfonyl)amino]phenyl}amino)imidazo[1,2-a]quinoxalin-1-yl]benzamide], the 50% inhibitory concentration (IC50) amounted to 202 nM.
Next, `O=C(NC1CC1)c1ccc(-c2cnc3c(NCCN4CCNC4=O)nc4ccccc4n23)cc1` [Example 2-33, N-cyclopropyl-4-(4-{[2-(2-oxoimidazolidin-1-yl)ethyl]amino}imidazo[1,2-a]quinoxalin-1-yl)benzamide]: 1150 nM; `N#Cc1ccc(CNc2nc3ccccc3n3c(-c4ccc(C(=O)NC5CC5)cc4)cnc23)cc1` [Example 2-34, 4-{4-[(4-cyanobenzyl)amino]imidazo[1,2-a]quinoxalin-1-yl}-N-cyclopropylbenzamide]: 287 nM; `O=C(NC1CC1)c1ccc(-c2cnc3c(NCCc4ccc(F)cc4)nc4ccccc4n23)cc1` [Example 2-35, N-cyclopropyl-4-(4-{[2-(4-fluorophenyl)ethyl]amino}imidazo[1,2-a]quinoxalin-1-yl)benzamide]: 539 nM.
Consider `O=C(NC1CC1)c1ccc(-c2cnc3c(NCCc4cccnc4)nc4ccccc4n23)cc1` [Example 2-36, N-cyclopropyl-4-(4-{[2-(pyridin-3-yl)ethyl]amino}imidazo[1,2-a]quinoxalin-1-yl)benzamide], for which the IC50 worked out at 129 nM.
In the case of `Cn1ccc(Nc2nc3ccccc3n3c(-c4ccc(C(=O)NC5CC5)cc4)cnc23)n1` [Example 2-37, N-cyclopropyl-4-{4-[(1-methyl-1H-pyrazol-3-yl)amino]imidazo[1,2-a]quinoxalin-1-yl}benzamide], the IC50 stood at 1050 nM.
Next, `NS(=O)(=O)CCNc1nc2ccccc2n2c(-c3ccc(C(=O)NC4CC4)cc3)cnc12` [Example 2-38, N-cyclopropyl-4-{4-[(2-sulfamoylethyl)amino]imidazo[1,2-a]quinoxalin-1-yl}benzamide]: 42.2 nM; `COc1cc(C(=O)NC2CCN(C)CC2)ccc1Nc1nc2ccccc2n2c(-c3ccc(C(=O)NC4CC4)cc3)cnc12` [Example 2-39, 4-({1-[4-(cyclopropylcarbamoyl)phenyl]imidazo[1,2-a]quinoxalin-4-yl}amino)-3-methoxy-N-(1-methylpiperidin-4-yl)benzamide]: 786 nM; `CCCNc1nc2ccc(F)cc2n2c(-c3ccc(C(=O)NC4CC4)cc3)cnc12` [Example 2-40, N-cyclopropyl-4-[8-fluoro-4-(propylamino)imidazo[1,2-a]quinoxalin-1-yl]benzamide]: 28.5 nM.
Turning to `O=C(NC1CC1)c1ccc(-c2cnc3c(NCCO)nc4ccc(F)cc4n23)cc1` [Example 2-41, N-cyclopropyl-4-{8-fluoro-4-[(2-hydroxyethyl)amino]imidazo[1,2-a]quinoxalin-1-yl}benzamide], the IC50 was 212 nM.
Next, `O=C(NC1CC1)c1ccc(-c2cnc3c(NCCCN4CCOCC4)nc4ccc(F)cc4n23)cc1` [Example 2-42, N-cyclopropyl-4-(8-fluoro-4-{[3-(morpholin-4-yl)propyl]amino}imidazo[1,2-a]quinoxalin-1-yl)benzamide]: 335 nM; `CC(C)CCNc1nc2ccc(F)cc2n2c(-c3ccc(C(=O)NC4CC4)cc3)cnc12` [Example 2-43, N-cyclopropyl-4-{8-fluoro-4-[(3-methylbutyl)amino]imidazo[1,2-a]quinoxalin-1-yl}benzamide]: 35.9 nM; `O=C(NC1CC1)c1ccc(-c2cnc3c(NCCCN4CCCC4=O)nc4ccc(F)cc4n23)cc1` [Example 2-44, N-cyclopropyl-4-(8-fluoro-4-{[3-(2-oxopyrrolidin-1-yl)propyl]amino}imidazo[1,2-a]quinoxalin-1-yl)benzamide]: 325 nM.
Next, `COCCNc1nc2ccc(F)cc2n2c(-c3ccc(C(=O)NC4CC4)cc3)cnc12` [Example 2-45, N-cyclopropyl-4-{8-fluoro-4-[(2-methoxyethyl)amino]imidazo[1,2-a]quinoxalin-1-yl}benzamide]: 255 nM; `O=C(NC1CC1)c1ccc(-c2cnc3c(NCc4ccc(F)cc4)nc4ccc(F)cc4n23)cc1` [Example 2-46, N-cyclopropyl-4-{8-fluoro-4-[(4-fluorobenzyl)amino]imidazo[1,2-a]quinoxalin-1-yl}benzamide]: 76.8 nM; `O=C(NC1CC1)c1ccc(-c2cnc3c(NCCCCO)nc4ccc(F)cc4n23)cc1` [Example 2-47, N-cyclopropyl-4-{8-fluoro-4-[(4-hydroxybutyl)amino]imidazo[1,2-a]quinoxalin-1-yl}benzamide]: 66.4 nM.
In the case of `O=C(NC1CC1)c1ccc(-c2cnc3c(NCc4cccs4)nc4ccc(F)cc4n23)cc1` [Example 2-48, N-cyclopropyl-4-{8-fluoro-4-[(thiophen-2-ylmethyl)amino]imidazo[1,2-a]quinoxalin-1-yl}benzamide], the IC50 came to 40.3 nM.
Next, `CCNc1nc2ccc(F)cc2n2c(-c3ccc(C(=O)NC4CC4)cc3)cnc12` [Example 2-49, N-cyclopropyl-4-[4-(ethylamino)-8-fluoroimidazo[1,2-a]quinoxalin-1-yl]benzamide]: 87.6 nM.
Next, `O=C(NC1CC1)c1ccc(-c2cnc3c(NCCCO)nc4ccc(F)cc4n23)cc1` [Example 2-50, N-cyclopropyl-4-{8-fluoro-4-[(3-hydroxypropyl)amino]imidazo[1,2-a]quinoxalin-1-yl}benzamide]: 154 nM; `CCCCNc1nc2ccc(F)cc2n2c(-c3ccc(C(=O)NC4CC4)cc3)cnc12` [Example 2-51, 4-[4-(butylamino)-8-fluoroimidazo[1,2-a]quinoxalin-1-yl]-N-cyclopropylbenzamide]: 39.2 nM; `O=C(NC1CC1)c1ccc(-c2cnc3c(NCC4CC4)nc4ccc(F)cc4n23)cc1` [Example 2-52, N-cyclopropyl-4-{4-[(cyclopropylmethyl)amino]-8-fluoroimidazo[1,2-a]quinoxalin-1-yl}benzamide]: 48.2 nM.
As for `O=C(NC1CC1)c1ccc(-c2cnc3c(NCc4ccccn4)nc4ccc(F)cc4n23)cc1` [Example 2-53, N-cyclopropyl-4-{8-fluoro-4-[(pyridin-2-ylmethyl)amino]imidazo[1,2-a]quinoxalin-1-yl}benzamide], the IC50 came to 1050 nM.
Next, `O=C(NC1CC1)c1ccc(-c2cnc3c(NCc4cccnc4)nc4ccc(F)cc4n23)cc1` [Example 2-54, N-cyclopropyl-4-{8-fluoro-4-[(pyridin-3-ylmethyl)amino]imidazo[1,2-a]quinoxalin-1-yl}benzamide]: 98.5 nM; `CC(C)CNc1nc2ccc(F)cc2n2c(-c3ccc(C(=O)NC4CC4)cc3)cnc12` [Example 2-55, N-cyclopropyl-4-{8-fluoro-4-[(2-methylpropyl)amino]imidazo[1,2-a]quinoxalin-1-yl}benzamide]: 28.3 nM; `NC(=O)CCNc1nc2ccc(F)cc2n2c(-c3ccc(C(=O)NC4CC4)cc3)cnc12` [Example 2-56, 4-{4-[(3-amino-3-oxopropyl)amino]-8-fluoroimidazo[1,2-a]quinoxalin-1-yl}-N-cyclopropylbenzamide]: 378 nM.
In the case of `COCCCNc1nc2ccc(F)cc2n2c(-c3ccc(C(=O)NC4CC4)cc3)cnc12` [Example 2-57, N-cyclopropyl-4-{8-fluoro-4-[(3-methoxypropyl)amino]imidazo[1,2-a]quinoxalin-1-yl}benzamide], the IC50 was 177 nM.
Next, `Cn1cc(CNc2nc3ccc(F)cc3n3c(-c4ccc(C(=O)NC5CC5)cc4)cnc23)cn1` [Example 2-58, N-cyclopropyl-4-(8-fluoro-4-{[(1-methyl-1H-pyrazol-4-yl)methyl]amino}imidazo[1,2-a]quinoxalin-1-yl)benzamide]: 105 nM.

The term IC50 denotes the concentration that inhibits the measured activity by half.
